The target of data set [1] is T1, Glucagon-like peptide 2 receptor (Homo sapiens, UniProt O95838).
T1 sequence (O95838 whole entry): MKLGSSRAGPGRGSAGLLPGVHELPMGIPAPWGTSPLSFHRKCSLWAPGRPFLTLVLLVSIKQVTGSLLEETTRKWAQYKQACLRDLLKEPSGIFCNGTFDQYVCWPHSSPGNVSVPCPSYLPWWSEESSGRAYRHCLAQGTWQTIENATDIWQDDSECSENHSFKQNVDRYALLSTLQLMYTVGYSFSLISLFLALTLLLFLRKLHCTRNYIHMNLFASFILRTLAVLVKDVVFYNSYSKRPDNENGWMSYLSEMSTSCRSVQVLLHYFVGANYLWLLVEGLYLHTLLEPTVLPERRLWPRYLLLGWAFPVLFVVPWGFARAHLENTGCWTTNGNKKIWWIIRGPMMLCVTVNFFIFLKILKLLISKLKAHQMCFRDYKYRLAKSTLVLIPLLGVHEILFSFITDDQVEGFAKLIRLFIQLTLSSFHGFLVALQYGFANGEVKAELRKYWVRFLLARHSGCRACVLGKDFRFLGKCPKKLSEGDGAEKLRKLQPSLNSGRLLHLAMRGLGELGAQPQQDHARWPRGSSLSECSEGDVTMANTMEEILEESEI
In words: Agonist activity at human GLP2R expressed in HEK293 cells after 5 hrs by luciferase reporter gene assay. The data set is classed as cell-based.

Data set [2] concerns the target Glucagon-like peptide 1 receptor (Homo sapiens, UniProt P43220). In words: Agonist activity at human GLP1R expressed in HEK293 cells after 5 hrs by luciferase reporter gene assay. The format is cell-based. A general note: A reporter such as luciferase makes a cellular process visible.
The target in data set [3] is T2, Glucagon-like peptide 2 receptor (Homo sapiens) (UniProt O95838).
T2 sequence (whole entry): T1 sequence (O95838 whole entry)
Put plainly: Potency index, ratio of compound EC50 to compound 2 EC50 for human GLP2R expressed in HEK293 cells. The data set is classed as cell-based.

The test system of the next data set is HEK293. In words: Selectivity ratio of EC50 for human GLP1R expressed in HEK293 cells to EC50 for human GLP2R expressed in HEK293. The format is cell-based.
A short description of data set [4]: Systemic clearance in Sprague-Dawley rat at 0.2 mg/kg, iv through cassette dosing measured up to 300 mins by LC/MS/MS analysis. The data set is classed as ADME, organism-based. Conditions: in vivo.
In data set [5] the target is Glucagon receptor (Homo sapiens) (UniProt P47871). In words: Agonist activity at human GCGR expressed in HEK293 cells after 5 hrs by luciferase reporter gene assay. The format is cell-based.
Sequence of Glucagon receptor (Homo sapiens) (P47871 whole entry): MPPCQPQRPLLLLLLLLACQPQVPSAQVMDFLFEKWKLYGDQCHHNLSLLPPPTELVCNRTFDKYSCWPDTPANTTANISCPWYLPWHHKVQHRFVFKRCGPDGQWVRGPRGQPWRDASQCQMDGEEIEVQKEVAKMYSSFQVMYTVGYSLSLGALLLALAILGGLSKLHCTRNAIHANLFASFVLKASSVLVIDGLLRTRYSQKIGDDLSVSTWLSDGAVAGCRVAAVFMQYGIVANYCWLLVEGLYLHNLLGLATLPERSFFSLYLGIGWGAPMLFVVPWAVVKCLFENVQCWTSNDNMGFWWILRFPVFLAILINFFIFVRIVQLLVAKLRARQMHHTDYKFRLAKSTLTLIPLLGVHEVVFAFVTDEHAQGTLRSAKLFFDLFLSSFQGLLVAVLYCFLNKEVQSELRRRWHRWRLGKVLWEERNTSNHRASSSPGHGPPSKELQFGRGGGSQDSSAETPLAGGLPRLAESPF

The source made the active and inactive calls. The rule behind the calls is not given here. Where only a bound is given, the exact number is not on record here.

Sequence of Glucagon-like peptide 1 receptor (P43220 whole entry): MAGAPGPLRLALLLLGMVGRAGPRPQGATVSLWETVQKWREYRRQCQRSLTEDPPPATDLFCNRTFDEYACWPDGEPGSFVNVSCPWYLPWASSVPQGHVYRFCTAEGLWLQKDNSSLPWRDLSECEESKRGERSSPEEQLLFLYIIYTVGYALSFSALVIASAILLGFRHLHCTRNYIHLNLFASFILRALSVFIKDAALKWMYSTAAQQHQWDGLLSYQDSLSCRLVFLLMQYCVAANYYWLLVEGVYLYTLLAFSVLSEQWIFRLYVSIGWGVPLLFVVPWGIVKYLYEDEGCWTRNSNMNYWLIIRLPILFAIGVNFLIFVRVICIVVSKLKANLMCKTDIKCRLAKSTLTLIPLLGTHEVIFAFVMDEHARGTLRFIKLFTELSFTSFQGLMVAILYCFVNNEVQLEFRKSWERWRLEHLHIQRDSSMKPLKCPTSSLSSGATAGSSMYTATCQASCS

By EC50 is commonly meant the concentration needed to bring the measured effect to its halfway point. Higher therefore signals lower potency in that assay. Take H-HGDGSFSDEMNTILDNLAARDFINWLIQT-NH2: the EC50 is 0.63 nM in data set [1] and above 1000 nM in data set [2]. Also, the Ratio EC50 in data set [3] is 7; in the data set with HEK293, above 1500.

As to H-HGDGSFSDEMNTILDNLAARDFINW-NH2, the EC50 in data set [1] was above 30 nM; in data set [2], above 1000 nM. For the same compound, in data set [3], the Ratio EC50 is above 330.

Take H-HGDGSFSDEMNTILDNLAARDFINWLI-NH2: the EC50 in data set [1] was 1.1 nM; in data set [2], above 1000 nM. Moreover, the Ratio EC50 in data set [3] was 12; in the data set on HEK293, above 900.

As a reminder, the clearance is the rate of elimination divided by the concentration. A higher clearance goes with efficient removal. For the compound `CCCCC(NC(=O)[C@H](CCC(=O)O)NC(=O)[C@H](CC(=O)O)NC(=O)[C@H](CO)NC(=O)[C@H](Cc1ccccc1)NC(=O)[C@H](CO)NC(=O)CNC(=O)[C@H](CC(=O)O)NC(=O)CNC(=O)[C@@H](N)Cc1cnc[nH]1)C(=O)N[C@H](Cc1cnc[nH]1)C(=O)N[C@H](C(=O)N[C@H](C(=O)N[C@@H](CC(C)C)C(=O)N[C@@H](CC(=O)O)C(=O)N[C@@H](CC(N)=O)C(=O)N[C@@H](CC(C)C)C(=O)N[C@@H](C)C(=O)N[C@@H](C)C(=O)N[C@@H](CCCNC(=N)N)C(=O)N[C@@H](CC(=O)O)C(=O)N[C@@H](Cc1ccccc1)C(=O)N[C@H](C(=O)N[C@@H](CC(N)=O)C(=O)N[C@@H](Cc1c[nH]c2ccccc12)C(=O)N[C@@H](CC(C)C)C(=O)N[C@H](C(=O)N[C@@H](CCC(N)=O)C(=O)N[C@H](C(=O)N[C@@H](CCCCN)C(N)=O)[C@@H](C)O)[C@@H](C)CC)[C@@H](C)CC)[C@@H](C)CC)[C@@H](C)O` (stereo not given in full), the EC50 in data set [1] was 0.2 nM; in data set [2], above 1000 nM. Further, the Ratio EC50 in the data set on HEK293 was above 5000. For the same compound, the clearance in data set [4] was determined as 0.0438 L/h/kg. In addition, in data set [5], the result was inactive.

Regarding H-HGDGSFSDEMNTILDNLAARDFINWLIQTKIT-NH2, the figures for the EC50 in data set [1] and in data set [2] were 0.29 nM and above 1000 nM, respectively. In addition, the figures for the Ratio EC50 (in data set [3]; in the data set on HEK293) were 3.2 and above 3400, respectively.

For `CCCCC(NC(=O)[C@H](CCC(=O)O)NC(=O)[C@H](CC(=O)O)NC(=O)[C@H](CO)NC(=O)[C@H](Cc1ccccc1)NC(=O)[C@H](CO)NC(=O)CNC(=O)[C@H](CC(=O)O)NC(=O)CNC(=O)[C@@H](N)Cc1cnc[nH]1)C(=O)N[C@H](CCN)C(=O)N[C@H](C(=O)N[C@H](C(=O)N[C@@H](CC(C)C)C(=O)N[C@@H](CC(=O)O)C(=O)N[C@@H](CC(N)=O)C(=O)N[C@@H](CC(C)C)C(=O)N[C@@H](C)C(=O)N[C@@H](C)C(=O)N[C@@H](CCCNC(=N)N)C(=O)N[C@@H](CC(=O)O)C(=O)N[C@@H](Cc1ccccc1)C(=O)N[C@H](C(=O)N[C@@H](CC(N)=O)C(=O)N[C@@H](Cc1c[nH]c2ccccc12)C(=O)N[C@@H](CC(C)C)C(=O)N[C@H](C(=O)N[C@@H](CCC(N)=O)C(=O)N[C@H](C(=O)N[C@@H](CCCCN)C(N)=O)[C@@H](C)O)[C@@H](C)CC)[C@@H](C)CC)[C@@H](C)CC)[C@@H](C)O` (stereo not given in full), the EC50 in data set [1] was 0.66 nM; in data set [2], above 1000 nM. Besides, the Ratio EC50 with HEK293 is above 1500. Further, the clearance in data set [4] came out at 0.582 L/h/kg. Further, the result in data set [5] was inactive.

For the compound H-HGDGSFSDEMNTILDNLAARDFINWLIQTKI-NH2, the EC50 in data set [1] is 0.48 nM; in data set [2], above 1000 nM. The Ratio EC50 is 5.3 in data set [3] and above 2000 in the data set with HEK293.

As for `CCCCC(NC(=O)[C@H](CCC(=O)O)NC(=O)[C@H](CC(=O)O)NC(=O)[C@H](CO)NC(=O)[C@H](Cc1ccccc1)NC(=O)[C@H](CO)NC(=O)CNC(=O)[C@H](CC(=O)O)NC(=O)CNC(=O)[C@@H](N)Cc1cnc[nH]1)C(=O)N[C@@H](CC(N)=O)C(=O)N[C@H](C(=O)N[C@H](C(=O)N[C@@H](CC(C)C)C(=O)N[C@@H](CC(=O)O)C(=O)N[C@@H](CC(N)=O)C(=O)N[C@@H](CC(C)C)C(=O)N[C@@H](C)C(=O)N[C@@H](C)C(=O)N[C@@H](CCCNC(=N)N)C(=O)N[C@@H](CC(=O)O)C(=O)N[C@@H](Cc1ccccc1)C(=O)N[C@H](C(=O)N[C@@H](CC(N)=O)C(=O)N[C@H](Cc1c[nH]c2ccccc12)C(=O)N[C@@H](CC(C)C)C(=O)N[C@H](C(=O)N[C@@H](CCC(N)=O)C(=O)N[C@H](C(=O)N[C@@H](CCCCN)C(N)=O)[C@@H](C)O)[C@@H](C)CC)[C@@H](C)CC)[C@@H](C)CC)[C@@H](C)O` (stereo not given in full), the EC50 was above 30 nM in data set [1] and above 1000 nM in data set [2]. In addition, the Ratio EC50 in data set [3] was above 130. Also, the outcome in data set [5] was inactive.

With H-HGDGSFSDEMNTILDNLAARDFINWLIQ-NH2, the EC50 in data set [1] is 1.1 nM; in data set [2], above 1000 nM. Further, the Ratio EC50 in data set [3] is 12; in the data set on HEK293, above 900.

In the case of `CCCCC(NC(=O)[C@H](CCC(=O)O)NC(=O)[C@H](CC(=O)O)NC(=O)[C@H](CO)NC(=O)[C@H](Cc1ccccc1)NC(=O)[C@H](CO)NC(=O)CNC(=O)[C@H](CC(=O)O)NC(=O)CNC(=O)[C@@H](N)Cc1cnc[nH]1)C(=O)N[C@H](Cc1ccccc1)C(=O)N[C@H](C(=O)N[C@H](C(=O)N[C@@H](CC(C)C)C(=O)N[C@@H](CC(=O)O)C(=O)N[C@@H](CC(C)C)C(=O)N[C@@H](CC(C)C)C(=O)N[C@@H](C)C(=O)N[C@@H](C)C(=O)N[C@@H](CCCNC(=N)N)C(=O)N[C@@H](CC(=O)O)C(=O)N[C@@H](Cc1ccccc1)C(=O)N[C@H](C(=O)N[C@@H](CC(N)=O)C(=O)N[C@@H](Cc1c[nH]c2ccccc12)C(=O)N[C@@H](CC(C)C)C(=O)N[C@H](C(=O)N[C@@H](CCC(N)=O)C(=O)N[C@H](C(=O)N[C@@H](CCCCN)C(=O)N[C@H](C(=O)N[C@H](C(=O)N[C@@H](CC(=O)O)C(=O)NCc1ccncc1)[C@@H](C)O)[C@@H](C)CC)[C@@H](C)O)[C@@H](C)CC)[C@@H](C)CC)[C@@H](C)CC)[C@@H](C)O` (stereo not given in full), the EC50 in data set [1] is 0.04 nM; in data set [2] it was above 1000 nM. In addition, in the data set on HEK293, the Ratio EC50 was above 25000. The compound further gave a clearance in data set [4] of 0.0162 L/h/kg.

For `CCCCC(NC(=O)[C@H](CCC(=O)O)NC(=O)[C@H](CC(=O)O)NC(=O)[C@H](CO)NC(=O)[C@H](Cc1ccccc1)NC(=O)[C@H](CO)NC(=O)CNC(=O)[C@H](CC(=O)O)NC(=O)CNC(=O)[C@@H](N)Cc1cnc[nH]1)C(=O)N[C@H](Cc1cccs1)C(=O)N[C@H](C(=O)N[C@H](C(=O)N[C@@H](CC(C)C)C(=O)N[C@@H](CC(=O)O)C(=O)N[C@@H](Cc1ccccc1)C(=O)N[C@@H](CC(C)C)C(=O)N[C@@H](C)C(=O)N[C@@H](C)C(=O)N[C@@H](CCCNC(=N)N)C(=O)N[C@@H](CC(=O)O)C(=O)N[C@@H](Cc1ccccc1)C(=O)N[C@H](C(=O)N[C@@H](CC(N)=O)C(=O)N[C@@H](Cc1c[nH]c2ccccc12)C(=O)N[C@@H](CC(C)C)C(=O)N[C@H](C(=O)N[C@@H](CCC(N)=O)C(=O)N[C@H](C(=O)N[C@@H](CCCCN)C(=O)N[C@H](C(=O)N[C@H](C(=O)N[C@@H](CC(=O)O)C(N)=O)[C@@H](C)O)[C@@H](C)CC)[C@@H](C)O)[C@@H](C)CC)[C@@H](C)CC)[C@@H](C)CC)[C@@H](C)O` (stereo not given in full), the EC50 in data set [1] was 0.07 nM; in data set [2], above 1000 nM. Also, the Ratio EC50 in the data set with HEK293 was above 14000. This compound yielded a clearance in data set [4] of 0.009 L/h/kg.

The values above are taken from ChEMBL document CHEMBL3822442, “Synthesis and Pharmacological Characterization of Novel Glucagon-like Peptide-2 (GLP-2) Analogues with Low Systemic Clearance” (J Med Chem, 2016).
